Article PMC11882969 (Nature Communications, 2025)
Values joined by “and” are separate entries in the source; they are usually repeats but may differ in a detail not shown here. Equal entries are not always repeated.

Tests used:
[1] = target: hCB1 (Homo sapiens, UniProt P21554); test: Tango β-arrestin-2 recruitment, HTLA cells, CB1R; assay type: cell-based; set-up: expressed in transfected cells; host or cells: HTLA cells (gift of R. Axel), transient transfection
[2] = target: hCB2 (Homo sapiens, UniProt P34972); test: TRUPATH BRET2 GoA dissociation, HEK293T; assay type: cell-based; set-up: expressed in transfected cells; host or cells: HEK293T cells (ATCC: CRL-3216), transient co-transfection; settings: for functional response, concentration-response point (FigS7e, normalized): Log[drug], replicate columns
hCB2, sequence (P34972 whole entry): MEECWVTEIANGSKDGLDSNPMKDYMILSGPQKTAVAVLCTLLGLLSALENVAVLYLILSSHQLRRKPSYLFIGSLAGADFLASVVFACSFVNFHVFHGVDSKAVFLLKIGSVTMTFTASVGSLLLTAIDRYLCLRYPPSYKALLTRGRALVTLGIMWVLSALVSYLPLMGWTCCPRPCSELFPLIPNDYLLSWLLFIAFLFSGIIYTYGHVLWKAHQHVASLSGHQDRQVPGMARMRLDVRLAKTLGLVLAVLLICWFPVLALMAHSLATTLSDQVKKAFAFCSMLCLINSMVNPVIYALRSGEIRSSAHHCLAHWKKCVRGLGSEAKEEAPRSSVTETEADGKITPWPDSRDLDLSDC

hCB1, sequence (P21554 whole entry): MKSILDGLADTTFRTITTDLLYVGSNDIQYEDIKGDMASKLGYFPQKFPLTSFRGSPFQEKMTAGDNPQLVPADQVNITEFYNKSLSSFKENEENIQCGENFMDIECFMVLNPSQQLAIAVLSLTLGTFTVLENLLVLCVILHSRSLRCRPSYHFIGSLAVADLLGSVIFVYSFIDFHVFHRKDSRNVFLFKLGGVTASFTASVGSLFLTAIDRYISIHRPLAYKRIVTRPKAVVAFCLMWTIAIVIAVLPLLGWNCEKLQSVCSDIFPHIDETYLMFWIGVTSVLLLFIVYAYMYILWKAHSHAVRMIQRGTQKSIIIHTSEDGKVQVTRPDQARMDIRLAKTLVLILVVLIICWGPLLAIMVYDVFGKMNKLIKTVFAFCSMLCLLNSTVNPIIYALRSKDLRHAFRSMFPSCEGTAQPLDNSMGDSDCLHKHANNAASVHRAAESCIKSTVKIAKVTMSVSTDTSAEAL

COC(=O)C(C)(NC(=O)c1cc(C)n(-c2cccc(C(F)(F)F)c2)n1)c1cccs1 (centres unmarked) [‘4042]
Emax ([1]; HTLA, hCB1, read-out: Tango ß-arrestin recruitment Emax): 102%
response, replicate values of concentration-response curve (FigS7f) ([1]; Log[drug], M = -4.52): 7.067 and -6.331 and 5.4951 and 8.221 and 8.314 and -13.0772 and 26.9747 and 17.871 and 12.4553 and 121.329 and 105.672 and 117.884
response, replicate values of concentration-response curve (FigS7f) ([1]; Log[drug], M = -5): -3.086 and 3.974 and -30.8966 and 0.657 and 12.6131 and 6.151 and 33.0168 and 23.9031 and -6.308 and 64.2077 and 47.075 and 77.367
response at Log[drug], M -5 (FigS4e) ([1]; Log[drug], M = -5, individual replicates): 105.219 and 109.279 and 117.533 and 125.309 and 97.6126 and 107.099 and 99.9992 and 108.6 and 92.9311 and 106.141 and 96.6922 and 121.582
response, replicate values of concentration-response curve (FigS7f) ([1]; Log[drug], M = -5.52): -43.7244 and -3.669 and 10.2865 and 56.4831 and 26.3341 and 31.5757 and 34.4515 and 25.7521 and 21.276 and 49.6996 and 52.3788 and 22.9617
response at Log[drug], M -5.52 (FigS4e) ([1]; Log[drug], M = -5.52, individual replicates): 101.394 and 114.732 and 120.488 and 108.55 and 90.8381 and 89.995 and 132.472 and 109.506 and 88.5962 and 99.4965 and 84.8551 and 98.2296
response, replicate values of concentration-response curve (FigS7f) ([1]; Log[drug], M = -6): 45.905 and 18.3989 and 8.994 and 37.6798 and 48.3885 and 1.626 and 39.9683 and 51.123 and 11.4551 and 62.3486 and 38.1624 and 52.7798
response at Log[drug], M -6 (FigS4e) ([1]; Log[drug], M = -6, individual replicates): 110.2 and 110.608 and 113.923 and 102.851 and 70.7652 and 82.3944 and 91.1468 and 90.7286 and 85.6996 and 85.6798 and 84.3272 and 95.3395
response, replicate values of concentration-response curve (FigS7f) ([1]; Log[drug], M = -6.52): 48.7063 and 31.7717 and 10.7428 and 2.793 and 31.788 and 27.608 and 19.4978 and 35.1184 and 41.787 and 72.0632 and 23.3444 and 56.7531
response at Log[drug], M -6.52 (FigS4e) ([1]; Log[drug], M = -6.52, individual replicates): 101.401 and 93.7884 and 111.126 and 102.386 and 76.6593 and 76.4337 and 80.9673 and 77.6716 and 90.47 and 82.2224 and 76.8121 and 78.3428
response, replicate values of concentration-response curve (FigS7f) ([1]; Log[drug], M = -7): 45.8923 and 39.1109 and -32.4811 and 3.271 and 1.931 and -6.456 and 21.6196 and 13.8396 and 19.3159 and 108.005 and 18.4598 and 4.043
response at Log[drug], M -7 (FigS4e) ([1]; Log[drug], M = -7, individual replicates): 101.996 and 90.2881 and 92.9617 and 98.4638 and 67.7319 and 66.2817 and 76.3076 and 71.3692 and 69.3631 and 70.7817 and 73.5528 and 86.8411
response, replicate values of concentration-response curve (FigS7f) ([1]; Log[drug], M = -7.52): 6.205 and 16.8525 and 13.7723 and 78.1261 and 25.2327 and 15.4263 and 3.028 and 19.2351 and -2.458 and 66.2308 and 22.6883 and 80.2832
response at Log[drug], M -7.52 (FigS4e) ([1]; Log[drug], M = -7.52, individual replicates): 85.8169 and 81.0399 and 77.0438 and 77.8353 and 74.3661 and 62.598 and 69.4576 and 65.014 and 61.4855 and 54.8485 and 65.2396 and 54.8221
response at Log[drug], M -8 (FigS4e) ([1]; Log[drug], M = -8, individual replicates): 64.9332 and 70.1108 and 76.4142 and 63.9273 and 43.1923 and 49.5865 and 49.0423 and 55.5064 and 60.3508 and 56.2009 and 53.2123 and 59.8164
response at Log[drug], M -8.52 (FigS4e) ([1]; Log[drug], M = -8.52, individual replicates): 34.3417 and 29.1931 and 35.2401 and 27.4328 and 27.4461 and 34.6615 and 20.0846 and 24.5419 and 29.6463 and 23.9316 and 26.0874 and 20.4241
response at Log[drug], M -9 (FigS4e) ([1]; Log[drug], M = -9, individual replicates): 11.2308 and 14.9426 and 16.0188 and 14.8879 and 7.81 and 6.201 and 6.046 and 5.165 and 11.416 and 8.011 and 9.8505 and 11.4417
response, replicate values of concentration-response curve (FigS7f) ([1]; Log[drug], M = -9.52): -8.017 and 13.4427 and 7.219 and 1.3736
response at Log[drug], M -9.52 (FigS4e) ([1]; Log[drug], M = -9.52, individual replicates): 4.318 and 6.954 and 4.569 and 9.019 and 2.48 and 0.9701 and 1.146 and -0.2947 and 2.2712 and 3.563 and 2.22 and 2.613
response, replicate values of concentration-response curve (FigS7f) ([1]; Log[drug], M = -10): -5.634 and 19.8566 and -6.166 and -19.951 and 12.6927 and 1.918 and 26.5806 and 27.9648 and -15.2597 and 16.5278 and -42.7439 and -28.9284
response at Log[drug], M -10 (FigS4e) ([1]; Log[drug], M = -10, individual replicates): 4.678 and 4.596 and 5.116 and 5.805 and 0.4668 and 1.099 and -0.9271 and 0.03226 and 4.179 and 1.0137 and 3.024 and 3.033
response at Log[drug], M -10.52 (FigS4e) ([1]; Log[drug], M = -10.52, individual replicates): 3.333 and 5.039 and 5.463 and 7.136 and 2.136 and 1.073 and 1.405 and 1.689 and 0.06416 and 3.135 and 1.262 and 0.6116
response at Log[drug], M -11 (FigS4e) ([1]; Log[drug], M = -11, individual replicates): 2.02 and 1.728 and 3.648 and 1.714 and 2.136 and 0.5313 and 2.282 and 1.392 and 2.442 and 2.186 and 2.656 and 2.784
response at Log[drug], M -11.52 (FigS4e) ([1]; Log[drug], M = -11.52, individual replicates): 0.1596 and 0.8162 and 2.015 and 2.59 and 0.7808 and -0.157 and 2.17 and 1.37 and 0.3122 and 1.493 and -1.27 and 0.3892
response at Log[drug], M -12 (FigS4e) ([1]; Log[drug], M = -12, individual replicates): -1.281 and 1.1992 and 0.1003 and -0.01824 and -0.4194 and -1.323 and 0.4797 and 1.263 and -0.586 and -0.201 and 1.578 and -0.7913
Tango ß-arrestin recruitment pEC50 ([1]; hCB1): 8.0 [7.9 – 8.1]
EC50 ([1]; hCB1, read-out: Tango ß-arrestin recruitment EC50): 10.7 nM
BRET2 + GoA pEC50 [2]: 8.1 [7.4 – 8.8]
Emax ([2]; HEK-293T): 29%
functional response, concentration-response point (FigS7e, normalized) ([2]; M = -5.52): 35.163 and 34.5195 and 37.1398 and 45.2359 and 22.1885 and 20.0253 and 22.0647 and 22.44 and 27.1274 and 29.7176 and 29.0627 and 31.2724
functional response, concentration-response point (FigS7e, normalized) ([2]; M = -6): 29.7877 and 33.9492 and 29.5334 and 25.2255 and 15.8228 and 16.2963 and 15.9211 and 20.153 and 25.0506 and 24.2718 and 28.0892 and 24.4694
functional response, concentration-response point (FigS7e, normalized) ([2]; M = -6.52): 26.0116 and 28.0846 and 25.607 and 31.5062 and 14.9093 and 14.0547 and 17.0527 and 13.1077 and 21.8115 and 21.8852 and 20.2922 and 24.9916
functional response, concentration-response point (FigS7e, normalized) ([2]; M = -7): 24.1274 and 22.8405 and 29.7761 and 21.8695 and 14.0743 and 11.9997 and 13.5282 and 12.4358 and 19.7258 and 19.481 and 19.1064 and 19.4486
functional response, concentration-response point (FigS7e, normalized) ([2]; M = -7.52): 23.5957 and 22.9137 and 20.3707 and 18.5906 and 11.4339 and 9.937 and 10.3691 and 10.8406 and 16.0355 and 14.8408 and 13.0297 and 14.2214
functional response, concentration-response point (FigS7e, normalized) ([2]; M = -8): 12.8343 and 12.3797 and 11.0928 and 9.008 and 8.006 and 4.9629 and 4.745 and 4.187 and 11.3719 and 9.991 and 9.086 and 7.272
functional response, concentration-response point (FigS7e, normalized) ([2]; M = -8.52): 3.796 and 2.717 and 4.595 and 4.6603 and 1.822 and 2.459 and 1.412 and 2.158 and 3.296 and 4.616 and 3.0209 and 3.939
functional response, concentration-response point (FigS7e, normalized) ([2]; M = -11.52): -0.1711 and -0.00125 and 0.5633 and 1.428
functional response, concentration-response point (FigS7e, normalized) ([2]; M = -12): 0.1237 and -0.6757 and -0.301 and 0.8531 and -0.1904 and 0.4719 and -0.17 and -0.1114 and 0.2132 and -0.01243 and 0.1138 and -0.3146
